The conditions of data set [1]: oral administration to black mice (Showalter et al. 2004); cited from earlier work.
The subject of data set [2] is New Zealand white rabbits. Put plainly: Myocardial infarct size after 30 min LAD coronary artery occlusion and 3 h reperfusion (tetrazolium method). It is filed as in vivo, rabbit. On the procedure: Male New Zealand white rabbits (2.3-2.6 kg) were assigned randomly to two separate groups. Each animal received DDA aqueous formulation (50 mg/kg), or an equal volume of sterile NaCl solution, once per day intravenously. The dose of DDA was selected based on the findings of previous investigations in which it was determined that a dosing regimen over four days produced statistically significant myocardial salvage in Sprague-Dawley rats (41% mean salvage at 50 mg/kg) and mongrel canines (68% mean salvage at 50 mg/kg) after ischemia and reperfusion (Gross and Lockwood, 2004; Gross and Lockwood, In Press). The animals in each group received the respective treatments on each of four consecutive days, with the experimental protocol being initiated on fifth day.
One day after the last treatment (DDA or placebo), rabbits were anesthetized with a combination of xylazine (3.0 mg/kg) and ketamine (35 mg/kg) administered intramuscularly, followed by an intravenous injection of sodium pentobarbital (15 mg/kg). An endotracheal tube was inserted and the animals were placed on a positive pressure ventilator (Harvard Apparatus, Cambridge, Mass.). The right jugular vein was cannulated for blood sampling and the right carotid artery was instrumented with a Millar catheter micro-tip pressure transducer (Millar Instruments Inc., Houston, Tex.). The Millar catheter transducer was positioned immediately above the aortic valves to monitor aortic blood pressure. The lead II electrocardiogram was monitored throughout the protocol. A left thoracotomy and pericardiotomy were performed, followed by identification of the left anterior descending coronary artery. A silk suture (3-0; Genzyme Corporation, Fall River, Mass.) was passed under the artery and around a short length of polyethylene tubing. […] Coronary artery occlusion was maintained for 30 min after which time reperfusion was initiated by withdrawing the polyethylene tubing. […]

Data set [3] in a line: Plasma and tissue concentrations of non-esterified, free astaxanthin at the end of reperfusion. It is filed as in vivo, rabbit. The conditions noted are these: rabbits, DDA 50 mg/kg i.v. for 4 days, end of 3 h reperfusion. An excerpt:
To determine the plasma and tissue concentrations of non-esterified, free astaxanthin in blood and organs, samples were taken at the end of reperfusion in selected rabbits (n=5) treated with DDA, and determined by methods previously described (Osterlie et al., 2000). Non-esterified, free astaxanthin, in vivo, is generated after cleavage of the water-dispersible disuccinate diester to monosuccinate, and subsequently to non-esterified, free astaxanthin by the intrinsic esterase activity of serum albumin (Curry et al., 1999), or by non-specific esterase activity in plasma and solid organs (Jensen et al., 1999). Non-esterified, free astaxanthin then accumulates in myocardium and other tissues after plasma clearance in a dose-dependent manner after both oral (Showalter et al., 2004) and intravenous administration (Gross and Lockwood 2004a,b).

The test system of a further data set is CRP. The experiment in a line: CRP deposition in heart tissue by indirect immunofluorescence. In kind it is in vivo, rabbit. The conditions noted are these: rabbits, 50 mg/kg i.v. 4 days, 30 min ischemia, 3 h reperfusion; p<0.05. The protocol: The immunofluorescent method for detection of CRP was performed essentially as described previously (Lauver et al., 2005). Briefly, tissue samples used for infarct size determination were fixed in 10% buffered formalin immediately after the completion of the experimental protocol. The tissue samples were embedded in paraffin blocks and cut into sections of 2 μm in thickness, which were then mounted on glass slides. Two consecutive sections (mirror images) from a single heart slice were mounted on each slide. The slides were deparaffinized and subjected to antigen unmasking using a commercially available kit for this purpose (Vector Laboratories, Burlingame, Calif.). After blocking for 30 minutes, primary antibodies were incubated at room temperature in a humidity chamber for 45 minutes. One section per slide was incubated with a chicken anti-rabbit CRP antibody (5 μg/ml final concentration, Strategic BioSolutions, Newark, Del.) and the other section was incubated with a chicken anti-rabbit MAC antibody (1:2500 final dilution, developed in conjunction with Lampire Biological Laboratories, Pipersville, Pa.). […] Images were analyzed using IP Lab (Scanalytics, Inc., Fairfax, Va.) software to determine mean fluorescence intensity per heart section. […]

With `CC1=C(/C=C/C(C)=C/C=C/C(C)=C/C=C/C=C(C)/C=C/C=C(C)/C=C/C2=C(C)C(=O)C(OC(=O)CCC(=O)O)CC2(C)C)C(C)(C)CC(OC(=O)CCC(=O)O)C1=O` (stereo not shown) [DDA, disodium disuccinate astaxanthin], in data set [1], the “plasma clearance of free astaxanthin and tissue/serum ratios” value is “Rapid plasma clearance of free astaxanthin, and excellent myocardium- and hepatic/serum ratios”. The mean myocardial salvage in data set [2] (50 mg/kg daily i.v. for four days, versus placebo) is on record as 51%. For the same compound, in data set [2] (50 mg/kg/day i.v. for 4 days, 30 min occlusion, 3 h reperfusion, mean ± S.E.M.), the “mean infarct size expressed as a percentage of the area at risk” value was found to be 25.8±4.2%. Moreover, in data set [2] (baseline and throughout protocol on day 5), the “heart rate, blood pressure, blood gases versus saline group” value is “No differences”. In data set [3], the “mean myocardial tissue concentration of non-esterified astaxanthin” value was more than 10 µM and the “mean plasma concentration of non-esterified, free astaxanthin” value is 222 ± 51 nM. Further, in the data set on CRP, the “CRP deposition in infarct region (fluorescence intensity) versus saline” value is “significantly reduced fluorescence”.

Source of the values: US9180111B2, “Reduction in complement activation and inflammation during tissue injury by carotenoids, carotenoid analogs, or derivatives thereof” (Cardax Pharma, Inc., priority 2005, dated 2015).
